Results as given in patent publication US10006089B2, “MCL-1 as a therapeutic target in SCFFBW7 deficient neoplasm” (Beth Israel Deaconess Medical Center, Inc., priority 2011, dated 2018).
“Also recorded” adds a separate entry of the source. Where a SMILES comes first, the peptide text is derived from it. The star is where a group is joined. Cbz = O=C(OCc1ccccc1)*

Experiments:
Type in all cases: cell-based, human
[1] = test system: T-ALL cell lines; test: Cell viability assay (CellTiter-Glo) of T-ALL cell lines; details: for sensitivity of Fbw7-deficient T-ALL cell lines compared with wild-type Fbw7 lines (cell viability): 0.5% FBS-containing medium, FIG. 13g; for sensitivity of Fbw7-deficient T-ALL cell lines (cell viability): 10% FBS-containing medium, FIG. 12a; for resistance of Fbw7-deficient T-ALL cell lines compared with wild-type Fbw7 lines to apoptotic stimuli (cell viability): FIG. 13c-f; for resistance after re-introduction of 3A-Mcl-1: FIG. 14e-f
Method: (§1) Cell culture including synchronization and transfection has been described^6,28. Wild type and Fbw7−/− DLD1 cell lines were kind gifts from Dr. Bert Vogelstein. Murine T-ALL cell lines derived from Tall transgenic mice were kind gifts from Dr. Michele A. Kelliher. Human T-ALL cell lines were previously described^2. Loucy and CMLT1 T-ALL cell lines were obtained from Jon Aster. For various assays described below, T-ALL cells were cultured in either 0.5% FBS or 10% FBS-containing medium for sorafenib (Alexis Biochemicals) or ABT-737 (Symansis) treatment. In the case of combined treatment with both sorafenib and ABT-737, T-ALL cells were maintained in 10% FBS-containing medium. Lentiviral shRNA virus packaging, retrovirus packaging, and subsequent infections were performed as described previously^28. For cell viability assays, cells were plated at 10,000 per well in 96-well plates, and incubated with the appropriate medium containing sorafenib, ABT-737 or DMSO for 48 h. Assays were performed with CellTiter-Glo Luminescent Cell Viability Assay kit according to the manufacturer's instructions (Promega). For detection of apoptosis, cells treated with various drugs were stained with propidium iodide (Roche), or co-stained with Annexin V-PE and 7-amino-actinomycin D (Annexin V-PE Apoptosis Detection Kit I, BD Bioscience) according to the manufacturer's instructions. Stained cells were sorted with Dako-Cytomation MoFlos sorter (Dako) at the Dana-Farber Cancer Institute FACS core facility.

[2] = test system: T-ALL cell lines; test: 7-AAD/Annexin V double-staining FACS analysis of apoptosis; details: 48 hours; for effect of sorafenib on ABT-737 sensitivity (apoptosis by FACS): sorafenib and/or ABT-737, 10% FBS
Method: as §1

[3] = test system: Mcl-1; test: Protein degradation analysis of Myc-Mcl-1 in transfected 293T cells; details: 293T cells transfected with Myc-Mcl-1, HA-Fbw7, HA-GSK3, FIG. 9a
Method: Cells were transfected with Myc-Mcl-1 along with HA-Fbw7, or Flag-β-TRCP1, and GFP as a negative control, in the presence or absence of HA-GSK3 and/or HA-ERK1. For half-life studies, cycloheximide (20 μg/ml, Sigma) was added to the media 40 h post-transfection. At various time points thereafter, cells were lysed and protein abundances were measured by immunoblot analysis.

[4] = test system: Mcl-1; test: Immunoblot analysis of Mcl-1 expression in T-ALL cell lines; details: 0.5% FBS-containing medium, FIG. 13h
Method: Cells were lysed in EBC (50 mM Tris pH 8.0, 120 mM NaCl, 0.5% NP-40) buffer supplemented with protease inhibitors (Complete Mini, Roche) and phosphatase inhibitors (phosphatase inhibitor cocktail set I and II, Calbiochem). The protein concentrations of the lysates were measured using the Bio-Rad Bradford protein assay reagent on a Beckman Coulter DU-800 spectrophotometer. The lysates were then resolved by SDS-PAGE and immunoblotted with the indicated antibodies. For immunoprecipitation, 800 μg lysates were incubated with the appropriate antibody (1-2 μg) for 3-4 h at 4° C. followed by one-hour incubation with Protein-A Sepharose beads (GE Healthcare). Immuno-complexes were washed five times with NETN buffer (20 mM Tris, pH 8.0, 100 mM NaCl, 1 mM EDTA and 0.5% NP-40) before being resolved by SDS-PAGE and immunoblotted with the indicated antibodies. Quantification of the immunoblot band intensity was performed with Image J software.

With `CN(C)CC[C@H](CSc1ccccc1)Nc1ccc(S(=O)(=O)NC(=O)c2ccc(N3CCN(Cc4ccccc4-c4ccc(Cl)cc4)CC3)cc2)cc1[N+](=O)[O-]` [ABT-737] the “sensitivity of Fbw7-deficient T-ALL cell lines compared with wild-type Fbw7 lines (cell viability)” value ([1]; 48 hours) was “resistant”, the “sensitivity of Fbw7-deficient T-ALL cell lines (cell viability)” value ([1]; 48 hours) was “resistant” and the “resistance after re-introduction of wild-type or 3A-Mcl-1” value ([1]; DND41 cells, 10% FBS, 48 hours, FIG. 14b) was “increase in resistance”. For the same compound, the “ABT-737 sensitivity after re-introduction of wild-type Fbw7” value ([1]; Fbw7-deficient CMLT1 cells, 10% FBS, 48 hours, FIG. 14a) was “partially restored its sensitivity”, the “ABT-737 sensitivity after depletion of endogenous Mcl-1” value ([1]; Fbw7-deficient T-ALL cell lines, shMcl-1, 10% FBS, 48 hours, FIG. 12c) was “restored ABT-737 sensitivity” and the “ABT-737-induced apoptosis in Fbw7-deficient T-ALL cells” value ([2]; 10% FBS, FIG. 13j, also immunoblots of apoptotic biomarkers FIG. 12b) was “impaired”.

For `CC(C)C[C@@H](C=O)NC(=O)[C@H](CC(C)C)NC(=O)[C@H](CC(C)C)NC(=O)OCc1ccccc1` [MG132] (Cbz-Leu-Leu-Leu-aldehyde), the “effect on Fbw7/GSK3-mediated Mcl-1 destruction” value [3] was “blocked”.

In the case of `COC(=O)Nc1nc2ccc(C(=O)c3cccs3)cc2[nH]1` [Nocodazole], the “resistance of Fbw7-deficient T-ALL cell lines compared with wild-type Fbw7 lines to apoptotic stimuli (cell viability)” value [1] is reported as “more resistant”.

With `CC(=O)O[C@H]1C(=O)[C@@]2(C)[C@H]([C@H](OC(=O)c3ccccc3)[C@]3(O)C[C@H](OC(=O)[C@H](O)[C@@H](NC(=O)c4ccccc4)c4ccccc4)C(C)=C1C3(C)C)[C@]1(OC(C)=O)CO[C@@H]1C[C@@H]2O` [Taxol] the “resistance after re-introduction of 3A-Mcl-1” value ([1]; DND41 cells) was “increase in resistance” and the “resistance of Fbw7-deficient T-ALL cell lines compared with wild-type Fbw7 lines to apoptotic stimuli (cell viability)” value [1] was “more resistant”.

In the case of `CC[C@@]1(O)C(=O)OCc2c1cc1n(c2=O)Cc2cc3ccccc3nc2-1` [camptothecin], the “resistance after re-introduction of 3A-Mcl-1” value ([1]; DND41 cells) is reported as “increase in resistance” and the “resistance of Fbw7-deficient T-ALL cell lines compared with wild-type Fbw7 lines to apoptotic stimuli (cell viability)” value [1] is reported as “more resistant”.

For `COc1cc([C@@H]2c3cc4c(cc3[C@@H](O[C@@H]3O[C@@H]5CO[C@@H](C)O[C@H]5[C@H](O)[C@H]3O)[C@H]3COC(=O)[C@H]23)OCO4)cc(OC)c1O` [etoposide], the “resistance of Fbw7-deficient T-ALL cell lines compared with wild-type Fbw7 lines to apoptotic stimuli (cell viability)” value [1] was “more resistant” and the “sensitivity to induced apoptosis after re-introduction of wild-type Fbw7” value ([1]; Fbw7-deficient HPB-ALL and JRT3-T3.5 cells, FIG. 14d) was “partially restored their sensitivity”.

`CNC(=O)c1cc(Oc2ccc(NC(=O)Nc3ccc(Cl)c(C(F)(F)F)c3)cc2)ccn1` [sorafenib] was tested, and the “effect on Mcl-1 expression” value [4] was “effectively reduce Mcl-1 expression”, the “sensitivity of Fbw7-deficient T-ALL cell lines compared with wild-type Fbw7 lines (cell viability)” value ([1]; 48 hours) was “more sensitive” and the “sensitivity of Fbw7-deficient T-ALL cell lines (cell viability)” value ([1]; 48 hours) was “more sensitive”. For the same compound, the “effect of sorafenib on ABT-737 sensitivity (cell viability)” value ([1]; Fbw7-deficient HPB-ALL cells, combined with ABT-737, 10% FBS, 48 hours, FIG. 14g) was “dose-dependent increase of ABT-737 sensitivity; also recorded: restored ABT-737 sensitivity”, the “effect of sorafenib on ABT-737 sensitivity (apoptosis by FACS)” value ([2]; Fbw7-deficient CMLT1 and JRT3-T3.5 cells, FIG. 14h) was “restored ABT-737 sensitivity” and the “effect of sorafenib on ABT-737 sensitivity (apoptosis by FACS)” value ([2]; Fbw7-deficient HPB-ALL cells, FIG. 12e) was “significant increase in the induction of apoptosis; also recorded: restores ABT-737 sensitivity”.
